Values of other authors in publication PMC7933701 (Biochemistry and Biophysics Reports, 2021).

Tested on: PSA
Details: peptide carrier of doxorubicin prodrug

Mu-His-Ser-Ser-Lys-Leu-Gln-Leu
hydrolysis by PSA (in words): precisely hydrolysable by PSA
